Data published in US5591613A, “Method for the preparation of D-arginine and L-ornithine” (Degussa Aktiengesellschaft, priority 1990, dated 1997).
Blank lines part the entries; values can stand above or below the compound they belong to.

Experiments:
arginase = details: literature value; cited from earlier work
ox liver arginase = details: literature; cited from earlier work
Calf liver arginase [1] = molecular target: T1, Calf liver arginase (Bos taurus, UniProt Q2KJ64); experiment: Arginase-catalysed hydrolysis of L-Arg to L-Orn, initial rates in batch, with and without inhibitors; type: biochemical; details: for kind of inhibition / substrate behaviour: from conversion-time profiles (FIG. 3); for conversion (%) after 1.0 hrs / conversion (%) after 1.5 hrs / conversion (%) after 2.0 hrs / ro, arginase: 0.5 M L-Arg; for conversion (%) after 1.0 hrs / conversion (%) after 1.5 hrs / conversion (%) after 2.0 hrs / ro, arginase / Vo Arginase / conversion after 2 hrs.: starting pH 11.5; for ro, arginase %: relative to 100:0; for Vo Arginase / conversion after 2 hrs.: 0.75 M L-Arg
T1 construct: purchased Boehringer Mannheim (Mannheim, F.R.G.)
T1 sequence (Q2KJ64 1-322): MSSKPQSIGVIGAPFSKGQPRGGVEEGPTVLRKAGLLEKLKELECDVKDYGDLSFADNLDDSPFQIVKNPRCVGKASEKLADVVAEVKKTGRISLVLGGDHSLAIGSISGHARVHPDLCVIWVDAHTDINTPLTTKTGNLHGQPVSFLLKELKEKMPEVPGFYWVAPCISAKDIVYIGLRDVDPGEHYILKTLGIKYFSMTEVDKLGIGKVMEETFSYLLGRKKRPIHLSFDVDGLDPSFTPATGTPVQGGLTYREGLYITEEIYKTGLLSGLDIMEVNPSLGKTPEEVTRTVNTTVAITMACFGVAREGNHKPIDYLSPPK
Experimental: In further experiments, the materials used were: Calf liver arginase (activity 110 U/mg) which was obtained from Boehringer Mannheim (Mannheim, F.R.G.). Amino acids were from Rexim (Ham, France). MnSO4, MnO2, and ascorbic acid were from E. Merck (Darmstadt, F.R.G.).
(§1) Batch conditions used were: Starting pH value, except for the activity-pH curve, was either 11.5, the natural value for L-Arg in water, or 9.5, adjusted from pH 11.5 with conc. HCl. The temperature was 25° C. unless otherwise noted. Typical concentrations of L-Arg were 0.75M. Unless otherwise mentioned, [Mn2^+ ]=5-10^-4 M. Reaction progress was followed by HPLC (amino column, mobile phase: phosphate buffer (pH 6.4)/acetonitrile).
Kinetic data was obtained as follows: Initial rate data were analyzed by a non-linear regression method (Marquardt routine) with the program OPTI (U. Giesecke, KFA J ulich).
A linear slope of 1/[S] vs. [I] plot distinguishes a purely competitive inhibition mechanism from a partially competitive one. Simultaneously, the apparent and the intrinsic KM -value are proportional to [I] according to equation (5) from which the inhibition constant KI can be calculated
Since the runs have been conducted at [LArg]=50 mM=2·Km,intr,Vo =Vmax ·2·KM,intr /(KM,intr (3+[I]/KI))=Vmax ·2/(3+[I]/KI). At [I]=KI, Vo =Vmax 2/(3+1)=Vmax /2. So, KI can be calcuated with sufficient accuracy from a Vo vs. [I] plot such as FIG. 4. […] In this work, however, maximum product concentration was sought for optimal space-time-yield and work-up efficiency.

Calf liver arginase [2] = molecular target: T1, Calf liver arginase; experiment: Activation of arginase by Mn2+ ions; type: biochemical
Experimental: as §1
Activation by Mn^2+ ions and MnO2 precipitation: An optimum concentration of the activator Mn^2+ of 0.5 mM was found. At the prevalent alkaline pH values, MnO2 from the oxidation of Mn^2+ precipitates. To suppress oxidation, ascorbic acid was added as an reducing agent.

SMILES: N=C(N)NCCC[C@H](N)C(=O)O [L-Arg, L-arginine]
Km (arginase): 4 mM | Km (ox liver arginase): 29 mM | kind of inhibition / substrate behaviour (Calf liver arginase [1]): not a substrate inhibitor | Vmax (Calf liver arginase [1]; nonlinear regression of initial rate data with L-Arg): 459 Units (=μmol/(min·mg))

SMILES: NCCC[C@H](N)C(=O)O [L-Orn, L-ornithine]
Ki (arginase): 1300 µM

SMILES: N=C(N)NCCC[C@@H](N)C(=O)O [D-Arg, D-arginine]
conversion (%) after 1.0 hrs (Calf liver arginase [1]; Ratio L/D-Arg 50:50 (DL)): 15.6% | conversion (%) after 1.5 hrs (Calf liver arginase [1]; Ratio L/D-Arg 50:50 (DL)): 19.4% | conversion (%) after 2.0 hrs (Calf liver arginase [1]; Ratio L/D-Arg 50:50 (DL)): 26.4% | ro, arginase (Calf liver arginase [1]; Ratio L/D-Arg 50:50 (DL)): 0.097 mol/L/h | ro, arginase % (Calf liver arginase [1]; Ratio L/D-Arg 50:50 (DL)): 59.5% | conversion (%) after 1.0 hrs (Calf liver arginase [1]; Ratio L/D-Arg 60:40): 22.2% | conversion (%) after 1.5 hrs (Calf liver arginase [1]; Ratio L/D-Arg 60:40): 32.2% | conversion (%) after 2.0 hrs (Calf liver arginase [1]; Ratio L/D-Arg 60:40): 35.4% | ro, arginase (Calf liver arginase [1]; Ratio L/D-Arg 60:40): 0.1376 mol/L/h | ro, arginase % (Calf liver arginase [1]; Ratio L/D-Arg 60:40): 73.6% | conversion (%) after 1.0 hrs (Calf liver arginase [1]; Ratio L/D-Arg 70:30): 24.6% | conversion (%) after 1.5 hrs (Calf liver arginase [1]; Ratio L/D-Arg 70:30): 31.8% | conversion (%) after 2.0 hrs (Calf liver arginase [1]; Ratio L/D-Arg 70:30): 35.4% | ro, arginase (Calf liver arginase [1]; Ratio L/D-Arg 70:30): 0.1380 mol/L/h | ro, arginase % (Calf liver arginase [1]; Ratio L/D-Arg 70:30): 73.8% | conversion (%) after 1.0 hrs (Calf liver arginase [1]; Ratio L/D-Arg 85:15): 25.1% | conversion (%) after 1.5 hrs (Calf liver arginase [1]; Ratio L/D-Arg 85:15): 34.8% | conversion (%) after 2.0 hrs (Calf liver arginase [1]; Ratio L/D-Arg 85:15): 40.2% | ro, arginase (Calf liver arginase [1]; Ratio L/D-Arg 85:15): 0.150 mol/L/h | ro, arginase % (Calf liver arginase [1]; Ratio L/D-Arg 85:15): 80.3% | kind of inhibition / substrate behaviour (Calf liver arginase [1]): neither a substrate of arginase nor a non-competitive inhibitor

SMILES: NCCCC[C@H](N)C(=O)O [L-Lys, reference compound]
Ki (arginase): 1300 µM | Vo Arginase (Calf liver arginase [1]; inhibitor 0.1 M): 0.129 mol/L/h | conversion after 2 hrs. (Calf liver arginase [1]; inhibitor 0.1 M): 34.3% | Vo Arginase (Calf liver arginase [1]; inhibitor 0.2 M): 0.120 mol/L/h | conversion after 2 hrs. (Calf liver arginase [1]; inhibitor 0.2 M): 32.1% | Vo Arginase (Calf liver arginase [1]; inhibitor 0.4 M): 0.086 mol/L/h | conversion after 2 hrs. (Calf liver arginase [1]; inhibitor 0.4 M): 22.9% | Vo Arginase (Calf liver arginase [1]; inhibitor 0.5 M): 0.075 mol/L/h | conversion after 2 hrs. (Calf liver arginase [1]; inhibitor 0.5 M): 19.9% | Vo Arginase (Calf liver arginase [1]; inhibitor 0.75 M): 0.066 mol/L/h | conversion after 2 hrs. (Calf liver arginase [1]; inhibitor 0.75 M): 17.5% | activity at 100000 µM (Calf liver arginase [1]; read-out: Vo Arginase (%)): 85.3% | activity at 200000 µM (Calf liver arginase [1]; read-out: Vo Arginase (%)): 79.9% | activity at 400000 µM (Calf liver arginase [1]; read-out: Vo Arginase (%)): 57% | activity at 500000 µM (Calf liver arginase [1]; read-out: Vo Arginase (%)): 49.5% | activity at 750000 µM (Calf liver arginase [1]; read-out: Vo Arginase (%)): 43.5%

optimum concentration of the activator (Calf liver arginase [2]): 0.5 mM
SMILES: [Mn+2] [Mn^2+]
